In ChEMBL document CHEMBL5137091, “Investigating the Structure-Activity Relationship of 1,2,4-Triazine G-Protein-Coupled Receptor 84 (GPR84) Antagonists” (J Med Chem, 2022):
pIC50: −log10 of the molar value.

Tests used:
[1] = biological target: G-protein coupled receptor 84 (Homo sapiens, UniProt Q9NQS5); assay: biochemical
[2] = Protein binding in mouse plasma assessed as unbound fraction; format: ADME, cell-free

Chain of G-protein coupled receptor 84 (Q9NQS5 whole entry): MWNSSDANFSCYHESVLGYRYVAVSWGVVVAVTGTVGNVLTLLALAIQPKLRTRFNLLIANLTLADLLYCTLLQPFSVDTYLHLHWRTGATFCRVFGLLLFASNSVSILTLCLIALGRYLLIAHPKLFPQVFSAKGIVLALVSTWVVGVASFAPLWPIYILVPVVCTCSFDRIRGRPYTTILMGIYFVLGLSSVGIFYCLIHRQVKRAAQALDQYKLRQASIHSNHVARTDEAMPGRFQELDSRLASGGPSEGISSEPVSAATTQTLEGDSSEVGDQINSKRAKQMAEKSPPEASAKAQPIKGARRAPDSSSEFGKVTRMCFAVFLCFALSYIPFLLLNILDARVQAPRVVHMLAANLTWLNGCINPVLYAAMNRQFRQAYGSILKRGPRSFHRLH

Structure (SMILES)	pIC50 [1]	fraction unbound [2]
c1ccc(-c2cnc(Cc3c[nH]c4ccccc34)nn2)cc1	5.25	–
c1ccc(-c2nc(Cc3c[nH]c4ccccc34)nnc2-c2ccc(CN3CCOCC3)cc2)cc1	–	< 0.01
c1ccc(-c2cnnc(Cc3c[nH]c4ccccc34)n2)cc1	4.99	–
COC(=O)c1cccc(-c2nc(Cc3c[nH]c4ccccc34)nnc2-c2ccccc2)c1	6.40	–

Continued, values first:

pIC50 [1]	fraction unbound [2]	Structure (SMILES)
–	< 0.01	c1ccc(-c2nnc(Cc3c[nH]c4ccccc34)nc2-c2ccccc2)cc1
6.58	–	c1ccc(-c2nnc(Cc3c[nH]c4ccccc34)nc2-c2ncccn2)cc1
6.94	–	COC(=O)c1cccc(-c2nnc(Cc3c[nH]c4ccccc34)nc2-c2ccccc2)c1
